Test results published in patent publication US20220402883A1, “COMPOUNDS AND METHODS FOR MODULATING RNA FUNCTION” (Arrakis Therapeutics, Inc., priority 2016, published 2022).

Legend:
[1] = tested on: RNA3WJ_0.0.0_5B_3FAM (3WJ RNA); test: Ligand observed NMR binding assay (Watergate, WaterLOGSY, STD); details: 10 μM RNA, +/− 200 Ark000013
Experimental: Purpose: Test direct binding of compounds for RNA three way junction (3WJ). This ligand observed NMR assay is used to test direct binding of compounds to an RNA target, for example a 38 nt synthetic RNA 3WJ and others as described below. Ligand observed assay was used for hit validation studies of single compounds. Established experiments were eventually used to perform group epitope mapping, described below.
Sample buffer: 10 mM Cacodylate, pH 7.1; 0.68 g [MW: 137.99 g/mol]; fill up to 500 ml with Millipore H2O.
Compound Stocks: Tool compounds provided as dry powder were prepared as 50 mM stock solution in 100% d6-DMSO. Test compounds provided as dry powder were prepared as 50 mM stock solution in 100% d6-DMSO. Stock solutions of 50 mM concentration in d6-DMSO were stored at 4° C.
NMR spectrometer: Bruker AVANCE600 spectrometer operating at 600.0 MHz for ^1H. 5-mm z-gradient TXI Cryoprobe.
Dried RNA pellet is solubilized in sample buffer 10 mM Cacodylate pH 7.1. […]
Spectra were analyzed for direct binding signals of the compounds. […]
ARK0000013 was also tested in the NMR binding assay. Test Sample: 10 μM RNA3WJ_0.0.0_5B_3FAM+/−200 Ark000013. ^1H 1D Watergate & WaterLOGSY spectra recorded of Ark000013 were used as a reference (Note: aromatic signals observed between 7.4-7.9 ppm and due to symmetry of the center triptycene scaffold all 9 protons are magnetically equivalent).

[2] = tested on: Split3WJ.2 up_5IB+Split3WJ.2_down_3FAM (trans 3WJ as 1:1 mix); test: Fluorescence quenching binding assay (FAM / Iowa Black); details: two concentration points
Experimental: This assay will be used to test binding of compounds for RNA three way junction (such as a 38 nt construct). This is a fluorescence quenching assay utilizing FAM as fluorescence tag and Iowa Black as quencher. Tags are attached at the 3′ and 5′ end, respectively. Stable formation of MW upon compound binding would lead to quenching of the FAM fluorescence due to close proximity of the Iowa Black tag. Assay readout: FAM (485-520 nm) Fluorescence Intensity.
Assay sample buffer used: 10 mM CacoK pH 7.2, 30 mM NaCl. Buffer preparation in Dnase/Rnase Free distilled water (Gibco Life Technologies).
Dilute the RNA 1:10 (final 10 μM) in Assay Buffer.
Heat up the diluted RNA up to 90° C. for 5 min (sealed Eppendorf Tube).
Cool down the RNA probe slowly to RT.
Dilute the compounds to 800 μM in DMSO (Assay: 8 μM).
Final concentrations in the sample: 1-10 μM RNA, 8 μM compound, 1% DMSO
Pipet 25 μL Sample Solution into Greiner cat #784076, black, 384
Measure the 96 plate with the LightCycler480 (Channel: 485/520 nm).
The fluorescence quenching experiment was repeated for compounds Ark0000013 and Ark0000014 to measure binding with:
C) Split3WJ.2 up_5IB+Split3WJ.2_down_3FAM (trans 3WJ as 1:1 mix)
Both cmpds were tested at two concentration points in the fluorescence quenching assays to assess effect upon RNA constructs utilized in the study. […]

[3] = tested on: RNA3WJ_0.0.0_5IB_3FAM (3WJ_0.0.0_5IB_3FAM RNA construct); test: Thermal shift binding assay
Procedure, shortened: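 A 3WJ RNA construct, 5′-Iowa Black/3′-FAM labelled and annealed (90° C. for 5 min, slow cooling), was tested at 1 μM with 8 μM compound, 1% DMSO, in 10 mM CacoK pH 7.2, 30 mM NaCl. FAM fluorescence (480/510 nm) monitored from 41 to 91° C. at 0.1° C./sec. Compound effect on 3WJ stability taken from Tm shift of melting curves.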

[4] = tested on: RNA3WJ_3.0.0_5IB_3FAM; test: Thermal shift binding assay; details: 1 μM RNA, 8 μM compound, 10 mM CacoK pH 7.2, 30 mM NaCl
[5] = 1 μM RNA, 8 μM compound, 10 mM CacoK pH 7.2, 30 mM NaCl

STD signals [1]: small signals
WaterLOGSY signals in the presence of RNA [1]: clear reduction of negative sign signals
Melting temp + cmpd [3, 5]: 84.1 °C
Temp. Shift [3, 5]: 24.2 °C
Melt. Temp. with cmpd ([3]; RNA sequence 3WJ_0.0.0_5IB_FAM, melting temperature in presence of compound): 84.1 °C
Shift melt. Temp. ([3]; RNA sequence 3WJ_0.0.0_5IB_FAM, with cmpd minus without cmpd): +24.2 °C
Melting temp + cmpd [4]: 83.7 °C
Temp. Shift [4]: 21.7 °C
Structure (SMILES): CN(CCCN)CCCNC(=O)c1ccc2c(c1)C1c3cc(C(=O)NCCCN(C)CCCN)ccc3C2c2ccc(C(=O)NCCCN(C)CCCN)cc21 [Ark000013, N^2,N^7,N^15-tris(3-((3-aminopropyl)(methyl)amino)propyl)-9,10-dihydro-9,10-[1,2]benzenoanthracene-2,7,15-tricarboxamide]
fluorescence quenching effect (FAM fluorescence signal) [2]: significant concentration dependent effect
